The numbers were not newly measured in publication PMC13064256, “Integrative preclinical strategy for pharmacokinetic profiling and candidate selection of 3-hydroxypropanamidines: a promising antimalarial class” (Malaria Journal, 2026), which cites them from elsewhere.

On the set-up of this series: method as in PMID 31898492.

Consider `CCCCN(CCCC)CCC(O)c1cc2c(Cl)cc(Cl)cc2c2cc(C(F)(F)F)ccc12` (stereo not shown) [halofantrine], for which the “Clint in HLMs” value is reported as 26.9 µL/min/mg.
